The values that follow are results of earlier work, collected in US20080241292A1, “COMPOSITION AND METHOD FOR WEIGHT LOSS” (IOMEDIX DEVELOPMENT INTERNATIONAL SRL, priority 2006, published 2008).

Ends that are not written are not given here.

The conditions of series [1]: humans.
For series [2] the following is noted: exogenous administration to humans.

On to “Glucagon-like peptide-1 (HAEGTFTSDVSSYLEGQAAKEFIAWLVKGR; ends and bridges not checked; UniProt P01275 98-127, looked up) [GLP-1, satiety signal peptide]”, for which the satiety result in series [1] is recorded as “increase satiety”.

B1: Cholecystokinin (peptide, UniProt P06307 21-115, looked up)
Cholecystokinin: QPVPPADPAGSGLQRAEEAPRRQLRVSQRTDGESRAHLGALLARYIQQARKAPSGRMSIVKNLQNLDPSHRISDRDYMGWMDFGRRSAEEYEYPS
modifications: Cholecystokinin
notes: satiety signal peptide secreted from intestinal cells in response to nutrients
With B1, in series [2], the food intake result was “reduction in food intake”.
